Test results: patent US20230348462A1, “IMIDAZO[4,5-C]QUINOLINE COMPOUNDS AND THEIR USE AS ATM KINASE INHIBITORS” (Deutsches Krebsforschungszentrum, priority 2020, published 2023)

Key:
human ATM = human ATM (Homo sapiens (Human), UniProt Q13315); assay: Enzymatic ATM assay (RBC FRET enzyme assay); type: biochemical; settings: substrate p53, 5-point dilution starting at 10 μM
Description: The inhibitory activity on the isolated ATM kinase was determined by a commercial supplier (Reaction Biology Corp., PA, US) using an activity based FRET assay. Compounds were therefore first pre-incubated with human ATM before substrate (p53) and ATP were added to initiate the phosphorylation reaction. After a given time, the kinase reaction was stopped and the amount of phosphorylated substrate was quantified using standard FRET detection methods. […] Detailed assay conditions and parameters can be requested from the commercial supplier.

[1] = system: kras^G12D; mycOE; p53^−/− murine pancreatic cancer cells (KMP53); assay: KMP53 cell assay (XTT cell viability with Etoposide); type: cell-based; settings: Mus musculus, 4 h pre-treatment, then 300 nM Etoposide, 46 h
Excerpt: (§1) A selection of compounds was screened in a cellular assay system in two different cancer cell lines. Therefore, the cells were challenged with a generally non-cytotoxic concentration of Etoposid to induce DNA double strand breaks and the activation of the ATM pathway. The cells were further treated with different concentrations of the final compounds and viability of the cells was quantified using a standard XTT cell viability protocol. The principle of this assay lies in the fact that only alive and thus metabolically active cells are able to catalyze the reduction of XTT ((2,3-bis-(2-methoxy-4-nitro-5-sulfophenyl)-2H-tetrazolium-5-carboxanilide) by NADH from mitochondria, into formazan. The formazan product can be then detected using an absorbance-based microplate reader. The absorbance intensity measured in each well correlates to cell viability.
(§2) In brief, kras^G12D; mycOE; p53^−/− murine pancreatic cancer cells (KMP53) and Panc-1 human pancreatic ductal carcinoma cells were seeded in 96-well plates and left to attach overnight. The following day, cells were treated with serial dilutions of compound or DMSO in triplicates. The cells were first pre-treated for 4 hours with inhibitor and then 300 nM of Etoposide was added to each well. Cells were then grown under normal conditions (37° C., 95% air, 5% CO2) for 46 h. Following the incubation period, XTT solution was added to the cells containing 1 mg/ml XTT and 25 μM phenazine methosulfate (PMS) diluted in full culture medium. Cells were incubated in normal conditions for two more hours. For the determination of cell viability, absorbance at 450 nm was measured for each well. Absorbance values were then normalized to DMSO control and expressed as percentages of viability. Using software GraphPad Prism, the values were fitted in a nonlinear response curve and the IC50 values were calculated.

Solubility in DMSO = type: physicochemical; settings: organic solvent or mixture, free base
Description: In a screw-top reaction vial, 41 mg (25) (0.1 mmol) and 1 mg tBu3P Pd G3 (1.5 mol %) were suspended in 2.4 ml degassed dioxane under argon atmosphere. Subsequently were added 40 mg (27) (0.14 mmol) as solution in dioxane and 0.6 ml of an aqueous 0.5M K3PO4 solution (0.3 mmol) via syringe. The reaction vial was sealed and heated to 50° C. heating block temperature for about 2 hours. TLC indicated complete conversion at that point and the reaction was quenched by dilution with EtOAc and brine. The phases were separated and the aqueous phase was further extracted with EtOAc (3×15 ml) and subsequently with DCM (4×15 ml). The combined extracts were washed with brine, dried and evaporated. The residue was purified via flash chromatography (DCM/MeOH+2N NH3 2-10%) to obtain 36 mg (74%) of the title substance as white solid. […] Therefore, it was converted to the HCl salt by dissolution in DCM/MeOH, acidification with HCl in EtOH and subsequent concentration of the solution. […]

[2] = system: Panc-1 human pancreatic ductal carcinoma cells; assay: Panc1 cell assay (XTT cell viability with Etoposide); type: cell-based; settings: 4 h pre-treatment, then 300 nM Etoposide, 46 h
Excerpt: as §1, §2

human ATM, sequence (Q13315 whole entry): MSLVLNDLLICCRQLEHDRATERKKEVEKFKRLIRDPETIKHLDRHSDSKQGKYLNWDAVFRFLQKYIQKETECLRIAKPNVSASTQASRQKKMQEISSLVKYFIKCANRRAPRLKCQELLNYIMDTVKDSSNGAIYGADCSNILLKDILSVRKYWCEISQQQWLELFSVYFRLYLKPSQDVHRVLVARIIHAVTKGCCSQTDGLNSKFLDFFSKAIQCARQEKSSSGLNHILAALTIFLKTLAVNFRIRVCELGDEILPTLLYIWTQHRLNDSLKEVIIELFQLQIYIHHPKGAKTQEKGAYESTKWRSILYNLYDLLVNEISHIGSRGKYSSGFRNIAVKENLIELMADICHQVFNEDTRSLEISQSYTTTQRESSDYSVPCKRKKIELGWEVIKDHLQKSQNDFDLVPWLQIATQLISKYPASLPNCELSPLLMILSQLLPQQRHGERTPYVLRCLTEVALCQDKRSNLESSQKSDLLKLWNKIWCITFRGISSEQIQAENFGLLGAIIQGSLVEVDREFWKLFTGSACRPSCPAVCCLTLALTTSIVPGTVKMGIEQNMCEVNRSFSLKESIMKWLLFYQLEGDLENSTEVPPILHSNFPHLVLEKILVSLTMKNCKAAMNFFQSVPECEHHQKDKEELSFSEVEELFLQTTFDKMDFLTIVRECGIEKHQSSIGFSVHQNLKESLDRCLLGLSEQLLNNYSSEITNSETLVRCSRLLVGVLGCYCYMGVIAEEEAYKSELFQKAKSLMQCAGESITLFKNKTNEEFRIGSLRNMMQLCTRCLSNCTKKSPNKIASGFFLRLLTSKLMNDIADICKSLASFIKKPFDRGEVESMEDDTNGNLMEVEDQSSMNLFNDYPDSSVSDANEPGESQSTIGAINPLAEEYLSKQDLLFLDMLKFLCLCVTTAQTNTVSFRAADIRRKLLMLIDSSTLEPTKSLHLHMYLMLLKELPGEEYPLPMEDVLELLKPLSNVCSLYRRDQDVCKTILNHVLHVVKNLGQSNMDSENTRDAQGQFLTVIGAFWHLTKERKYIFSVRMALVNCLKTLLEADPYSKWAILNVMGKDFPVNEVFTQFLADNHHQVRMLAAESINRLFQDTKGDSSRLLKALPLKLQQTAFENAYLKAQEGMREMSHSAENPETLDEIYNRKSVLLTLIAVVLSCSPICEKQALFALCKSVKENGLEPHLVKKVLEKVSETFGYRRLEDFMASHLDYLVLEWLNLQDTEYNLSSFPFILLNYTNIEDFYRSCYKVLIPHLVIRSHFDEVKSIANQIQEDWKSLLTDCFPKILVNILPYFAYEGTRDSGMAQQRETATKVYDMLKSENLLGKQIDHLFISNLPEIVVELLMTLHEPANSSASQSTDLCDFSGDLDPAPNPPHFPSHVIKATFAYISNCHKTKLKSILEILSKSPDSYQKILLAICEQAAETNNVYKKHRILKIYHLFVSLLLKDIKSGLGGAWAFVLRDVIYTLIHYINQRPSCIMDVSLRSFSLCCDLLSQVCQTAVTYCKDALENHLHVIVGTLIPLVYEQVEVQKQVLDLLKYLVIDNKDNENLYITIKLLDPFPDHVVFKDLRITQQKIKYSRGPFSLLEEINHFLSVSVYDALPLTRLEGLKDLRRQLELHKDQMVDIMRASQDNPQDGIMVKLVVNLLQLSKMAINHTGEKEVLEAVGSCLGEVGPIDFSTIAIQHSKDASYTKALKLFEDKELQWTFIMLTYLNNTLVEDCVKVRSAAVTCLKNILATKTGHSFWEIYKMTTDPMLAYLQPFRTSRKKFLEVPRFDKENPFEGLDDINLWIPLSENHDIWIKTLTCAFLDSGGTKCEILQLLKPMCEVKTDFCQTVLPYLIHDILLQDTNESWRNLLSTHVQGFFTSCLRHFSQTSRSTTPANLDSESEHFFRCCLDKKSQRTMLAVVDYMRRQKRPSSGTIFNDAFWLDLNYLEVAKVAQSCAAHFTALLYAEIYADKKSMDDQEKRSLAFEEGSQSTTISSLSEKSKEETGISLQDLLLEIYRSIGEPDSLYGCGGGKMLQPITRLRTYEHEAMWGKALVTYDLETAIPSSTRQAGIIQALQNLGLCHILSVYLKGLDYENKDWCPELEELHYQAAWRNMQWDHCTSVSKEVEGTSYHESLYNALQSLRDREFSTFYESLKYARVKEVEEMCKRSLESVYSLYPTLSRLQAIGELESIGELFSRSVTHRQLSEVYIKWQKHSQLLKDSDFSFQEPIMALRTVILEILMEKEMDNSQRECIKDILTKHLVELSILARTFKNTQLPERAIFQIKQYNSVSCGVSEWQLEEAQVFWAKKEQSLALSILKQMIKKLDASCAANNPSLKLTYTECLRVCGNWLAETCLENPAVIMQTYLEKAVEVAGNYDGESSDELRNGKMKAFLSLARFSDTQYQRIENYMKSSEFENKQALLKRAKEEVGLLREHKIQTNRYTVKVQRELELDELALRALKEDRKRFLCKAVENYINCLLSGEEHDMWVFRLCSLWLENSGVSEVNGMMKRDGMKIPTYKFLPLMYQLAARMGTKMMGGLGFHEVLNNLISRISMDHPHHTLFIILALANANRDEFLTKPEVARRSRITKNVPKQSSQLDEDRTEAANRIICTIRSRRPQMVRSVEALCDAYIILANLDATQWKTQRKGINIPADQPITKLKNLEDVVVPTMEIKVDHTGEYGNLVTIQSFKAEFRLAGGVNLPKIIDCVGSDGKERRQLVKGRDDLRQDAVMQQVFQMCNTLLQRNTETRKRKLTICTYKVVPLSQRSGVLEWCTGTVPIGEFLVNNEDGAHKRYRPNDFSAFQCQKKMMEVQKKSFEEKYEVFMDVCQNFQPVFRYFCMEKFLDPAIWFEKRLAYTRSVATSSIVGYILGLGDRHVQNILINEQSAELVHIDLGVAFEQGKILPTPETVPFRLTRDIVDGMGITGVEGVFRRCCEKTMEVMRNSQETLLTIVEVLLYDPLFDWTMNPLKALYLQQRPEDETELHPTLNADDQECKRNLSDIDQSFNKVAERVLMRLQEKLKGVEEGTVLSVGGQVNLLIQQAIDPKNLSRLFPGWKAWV

Row | IC50 (human ATM) | IC50 [1] | solubility (Solubility in DMSO) | IC50 [2] | Compound
1 | < 1 nM | 2.5 µM | < 10 mM |  | CN(C)CCNC(=O)Nc1ccc(-c2ccc3ncc4c(c3c2)n(C2CCOCC2)c(=O)n4C)cn1 [Ex. 7, 1-(2-(Dimethylamino)ethyl)-3-(5-(3-methyl-2-oxo-1-(tetrahydro-2H-pyran-4-yl)-2,3-dihydro-H-imidazo[4,5-c]quinolin-8-yl)pyridin-2-yl)urea]
2 | < 1 nM |  |  | 4 nM | COCCn1c(=O)n(C)c2cnc3ccc(-c4ccc(NC(=O)NC5CCCN(C)C5)cc4)cc3c21 (centres unmarked) [Ex. 17, 1-(4-(1-(2-Methoxyethyl)-3-methyl-2-oxo-2,3-dihydro-1H-imidazo[4,5-c]quinolin-8-yl)phenyl)-3-(1-methylpiperidin-3-yl)urea]
3 | < 1 nM | 9.93 µM |  | 9 nM | COCCn1c(=O)n(C)c2cnc3ccc(-c4ccc(NC(=O)NC5CCN(C)C5)cc4)cc3c21 (centres unmarked) [Ex. 19, 1-(4-(1-(2-Methoxyethyl)-3-methyl-2-oxo-2,3-dihydro-1H-imidazo[4,5-c]quinolin-8-yl)phenyl)-3-(1-methylpyrrolidin-3-yl)urea]
4 | < 1 nM | 4.79 µM |  | 1 nM | COCCn1c(=O)n(C)c2cnc3ccc(-c4ccc(NC(=O)NCCN(C)C)cc4F)cc3c21 [Ex. 27, 1-(2-(Dimethylamino)ethyl)-3-(3-fluoro-4-(1-(2-methoxyethyl)-3-methyl-2-oxo-2,3-dihydro-1H-imidazo[4,5-c]quinolin-8-yl)phenyl)urea]
5 | < 1 nM | 2 µM |  | 1 nM | COCCn1c(=O)n(C)c2cnc3ccc(-c4ccc(NC(=O)NCCN(C)C)c(F)c4)cc3c21 [Ex. 28, 1-(2-(Dimethylamino)ethyl)-3-(2-fluoro-4-(1-(2-methoxyethyl)-3-methyl-2-oxo-2,3-dihydro-1H-imidazo[4,5-c]quinolin-8-yl)phenyl)urea]
